PubChem BioAssay AID2384 (Southern Research Specialized Biocontainment Screening …, 2010)
pIC50: −log10 of the molar value. Where “and” joins values, the source holds several entries; their conditions need not be identical. Identical values can stand only once.

Tested on: S. typhi GFP reporter counter-screen, fluorescence, 4 h
Assay: inhibitors in S. typhi counter-screen strain, dose response, counter-screen for PhoP regulon inhibitor project, fluorescence, 4 h (AID 2384)

SMILES | pIC50
CN1CCC(=C2c3ccccc3C=Cc3ccccc32)CC1 | 4.11
C/C(=N\NC(=O)c1ccc(CN2CCc3ccccc3C2)cc1)c1ccccc1O | 4.29
Nc1cc(=O)[nH]c(=S)n1-c1cccc(C(F)(F)F)c1 | 3.84
COc1ccc(Cc2nnc(N/N=C/c3ccc(O)cc3)[nH]c2=O)cc1OC | 4.08
CN(C)CCNC(=O)/C(=C/c1ccc(-c2ccc(Cl)cc2)o1)NC(=O)c1ccccc1 | 4.20
CCn1cc(C(=O)O)c(=O)c2cc(F)c(N3CCN(S(=O)(=O)c4ccc(NC(C)=O)cc4)CC3)cc21 | 3.88
CN1CCN(/N=C/c2c3ccccc3c(Cl)c3ccccc23)CC1 | 4.13
Cc1nc2ccccc2c(N)c1C(=O)/C=C/c1ccccc1 | 4.00
Cc1cccc2c1Sc1ccc(Cl)cc1CC2N1CCNCC1 (configuration not stated) | 4.14
O=C(NC(=S)NNC(=O)c1cccs1)c1ccc(Br)o1 | 4.22
CCN1CCN(C(=O)Nc2ccc(Cc3ccc(NC(=O)N4CCN(CC)CC4)cc3)cc2)CC1 | 4.01
O=C(N/N=C/c1cc([N+](=O)[O-])ccc1O)C(O)(c1ccccc1)c1ccccc1 | 4.26
O/N=C/C1=C(Cl)c2ccccc2CC1 | 4.03
O=C(/C=C/c1ccc(F)cc1)NC(=S)NNC(=O)c1cnccn1 | 4.72
C/C=C/c1ccc(OCc2cc(=O)n3cc(C)ccc3n2)c(OC)c1 | 4.13
COc1ccc(C(=O)NC(=S)NNC(=O)CCc2ccccc2)cc1 | 3.86
N=c1n(CCN2CCCCC2)c2ccccc2n1CC(O)c1ccc(Cl)c(Cl)c1 (configuration not stated) | 4.70
CN(C)CCCN(C(=O)CCc1ccccc1)c1nc2ccc(Br)cc2s1 | 4.48
CCCCOc1ccc(NC2=NC3(CCCCC3)N=C(N)N2)cc1 | 4.46

SMILES | pIC50
O=C(NC(=S)NNC(=O)c1ccco1)c1ccc(Br)cc1 | 4.12
O=C(Nc1ccc(-c2nc3ccccc3[nH]2)cc1)c1ccco1 | 4.03
Cc1ccc(NC(=O)CNCc2ccccc2)cc1Br | 4.37
O=C(Cc1ccccc1)N/N=C/c1cc(Br)cc(Cl)c1O | 4.58
O=C(Nc1c2ccccc2nc2ccccc12)C(Cl)(Cl)Cl | 4.10
CCOC(=O)N/N=C\c1ccc([N+](=O)[O-])o1 | 4.51
Cc1ccc2c(c1)N/C(=C(\C=C(/Cl)[N+](=O)[O-])[N+](=O)[O-])N2 | 3.88
CCn1cc(C(=O)O)c(=O)c2ccc(C)nc21 | 4.08
CCCCCC(=O)NC(=S)NNC(=O)CC | 4.16
O=C(Cn1cncn1)N/N=C/c1ccccc1O | 3.83
Cc1ccc(C(C[N+](=O)[O-])c2c(N)n(C)c(=O)n(C)c2=O)cc1 (configuration not stated) | 4.21
COc1cc([N+](=O)[O-])cc(/C=N/NC(=O)c2cccnc2)c1O | 4.12
O=C(Oc1c(Cl)cc(Cl)c2cccnc12)c1ccco1 | 4.81
O=C(C[n+]1cc(-c2ccc(Cl)c(Cl)c2)n2c1CCC2)N1c2ccccc2Sc2ccccc21 | 4.71
NC1=NC[C@H](Cc2ccc(O)cc2)N1CCC12CC3CC(CC(C3)C1)C2 | 4.42
C#CCOCCOCCOCCNc1nc(N2CCN(C(=O)CCCCCCCCCCNC(=O)[C@H](CCCCN)n3cc(CCO)nn3)CC2)nc(N2CCN(C(=O)CCCCCCCCCCNC(=O)[C@H](CCCN=C(N)N)n3cc(C[C@@H](C)CC)nn3)CC2)n1 | 4.74
Clc1ccc2c(c1)C(N1CCNCC1)Cc1ccccc1S2 (configuration not stated) | 4.45
CC12CN3CC(C)(CN(C1)C3c1ccc(Br)cc1O)C2 (configuration not stated) | 3.84
NCC/C=C1/c2ccccc2CSc2ccccc21 | 3.84

SMILES | pIC50
Nc1nonc1-n1nnc(C(=O)N/N=C/c2cc(Br)ccc2O)c1CSC1=NCCS1 | 4.62
N/C(=N\N=C/c1ccc(F)cc1)N/N=C\c1ccc(F)cc1 | 4.41
CCn1cnc2cc(NCc3ccc(Br)cc3)ccc21 | 3.86
O=C(Nc1csc(Cl)c1)c1ccccc1 | 4.15
COC12C(COC(N)=O)C3=C(C(=O)C(C)=C(N)C3=O)N1CC1C2N1C (configuration not stated) | 5.51
c1cnc2c(c1)ccc1cccnc12 | 4.46 and 4.51
OCCNc1nc(Nc2ccc(Br)cc2)nc2ccccc12 | 4.80
CCOc1ccc(Nc2nc(NCC3CCCO3)c3ccccc3n2)cc1 (configuration not stated) | 4.71
N=c1c2c(-c3ccccc3)c(-c3ccccc3)n(Cc3ccco3)c2ncn1CCCn1ccnc1 | 4.40
CCN1/C(=C/C=C/C=C/c2sc3ccccc3[n+]2CC)Sc2ccccc21 | 5.01
CN(C)C1C(=O)C(C(N)=O)=C(O)C2(O)C(=O)C3=C(O)c4c(O)cccc4C(C)(O)C3CC12 (configuration not stated) | 5.77
Cc1cc(C)c(NC(=O)C[N+](C)(C)CC(O)COc2cccc3ccccc23)c(C)c1 (configuration not stated) | 4.20
N=c1n(Cc2ccc(Cl)cc2)c2ccccc2n1CC(O)COc1ccccc1 (configuration not stated) | 4.44
C(=N/Nc1nccs1)/c1cccnc1 | 4.31
Cc1cc([N+](=O)[O-])cc(/C=N\NC(=O)C2COc3ccccc3O2)c1O (configuration not stated) | 4.52
O=C(CSc1nnc(-c2ccccc2)n1-c1ccc(Cl)cc1)NC1CCS(=O)(=O)C1 (configuration not stated) | 4.35
O=C(/C=C/c1cc(Br)ccc1O)c1ccco1 | 4.28
Cc1ccc(Nc2nc(N)c3ccccc3n2)cc1Cl | 4.44
Cc1ccc(Nc2nc(NCCO)c3ccccc3n2)cc1C | 4.47
